System: carbapenem-resistant K. pneumoniae
Assay: HiPR-FISH chip antimicrobial susceptibility / MIC by growth imaging at several meropenem concentrations
Format: cell-based
Conditions: Klebsiella pneumoniae, several hours growth on a HiPR-FISH chip, in agreement with Clinical and Laboratory Standards Institute criteria, read-out: meropenem concentration beyond which the strain still grows (* denotes MIC)

## C[C@@H](O)[C@H]1C(=O)N2C(C(=O)O)=C(S[C@@H]3CN[C@H](C(=O)N(C)C)C3)[C@H](C)[C@H]12 [meropenem]
  MIC: > 2 µg/mL

Reference: US20230159989A1, “MULTIPLEXED FLUORESCENCE IN SITU HYBRIDIZATION METHOD CAPABLE OF RAPID DETECTION OF BILLIONS OF TARGETS” (Kanvas Biosciences, Inc., priority 2021, published 2023)
